Assay results from US20130045204A1, “FLUORINATED BISPHENOL ETHER COMPOUNDS AND METHODS FOR THEIR USE” (The University of British Columbia, priority 2011, published 2013).
Entries after “also recorded” stand apart in the source; their conditions may differ.

Columns and labels:
[1] = biological target: T1, AR (Homo sapiens, UniProt P10275); test: PSA-luciferase reporter assay of AR transcriptional activity; assay type: cell-based; details: for PSA-Luc activity (%) mean ± SD: PSA-luciferase reporter
T1 sequence (P10275 1-920 T878A): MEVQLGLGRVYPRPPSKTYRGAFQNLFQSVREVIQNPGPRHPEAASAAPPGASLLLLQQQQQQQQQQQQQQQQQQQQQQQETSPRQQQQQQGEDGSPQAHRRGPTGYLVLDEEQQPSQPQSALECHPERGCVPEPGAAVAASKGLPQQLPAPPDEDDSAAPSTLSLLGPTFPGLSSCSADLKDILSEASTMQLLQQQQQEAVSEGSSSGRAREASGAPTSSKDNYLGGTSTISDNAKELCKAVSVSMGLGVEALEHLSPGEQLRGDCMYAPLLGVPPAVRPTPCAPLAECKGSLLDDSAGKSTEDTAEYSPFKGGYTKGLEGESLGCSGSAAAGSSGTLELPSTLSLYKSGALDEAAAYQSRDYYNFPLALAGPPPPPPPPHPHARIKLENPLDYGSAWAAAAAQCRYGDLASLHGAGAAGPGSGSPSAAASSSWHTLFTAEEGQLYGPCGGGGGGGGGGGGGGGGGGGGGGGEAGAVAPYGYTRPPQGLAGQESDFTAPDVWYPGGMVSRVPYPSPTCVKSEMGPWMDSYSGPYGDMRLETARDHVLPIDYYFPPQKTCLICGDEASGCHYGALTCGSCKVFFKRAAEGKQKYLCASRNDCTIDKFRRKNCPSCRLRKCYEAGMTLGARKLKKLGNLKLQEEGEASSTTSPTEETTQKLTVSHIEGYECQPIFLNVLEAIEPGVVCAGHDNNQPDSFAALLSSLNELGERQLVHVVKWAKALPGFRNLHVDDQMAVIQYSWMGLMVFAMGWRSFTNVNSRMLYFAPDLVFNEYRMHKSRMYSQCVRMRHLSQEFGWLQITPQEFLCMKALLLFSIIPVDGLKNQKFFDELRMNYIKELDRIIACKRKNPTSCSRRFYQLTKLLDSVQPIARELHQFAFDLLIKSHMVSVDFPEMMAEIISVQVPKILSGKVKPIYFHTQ

[2] = biological target: T1, AR; test: probasin (PB)-luciferase reporter assay of AR transcriptional activity; assay type: cell-based
[3] = biological target: T1, AR; test: ARR3-luciferase reporter assay of AR transcriptional activity; assay type: cell-based
[4] = test system: LNCaP CRPC xenograft; test: LNCaP CRPC xenograft model, antitumor activity; assay type: in vivo, mice; details: for CRPC tumor growth / antitumor activity (in words): compared to DMSO control or to other comparative compounds, FIGS. 6, 7
[5] = Body weight of animals in LNCaP CRPC xenograft model; assay type: in vivo, mice; details: treated animals; FIG. 9
[6] = test system: VCaP xenografts; test: Growth inhibition of VCaP xenografts in castrated mice; assay type: in vivo; details: castrated NOD-SCID mice, 50 mg/kg i.v. every other day, seven doses; compared to (Ac); FIGS. 3, 4
Procedure: Growth inhibition of VCaP xenografts in castrated mice was determined as follow. Male NOD-SCID mice bearing subcutaneous VCaP tumors were castrated when tumor volume was ˜100 mm^3. […] The experiment ended two days after the last dose. Change in tumor volume was determined as the change at day 14 compared to the day of 1st injection. DMSO was used as the vehicle control.

[7] = test system: LNCaP cells; test: Inhibition of androgen-dependent proliferation, AlamarBlue Proliferation Assay; assay type: cell-based, human; details: 0.1 nM R1881, 3 days; compared to comparative compound (Ac); FIGS. 1A and 1B
Procedure: LNCaP human prostate cancer cells were maintained in phenol red-free RPMI 1640 medium with 0.5% (v/v) fetal bovine serum, while PC3 human prostate cancer cells were cultured in phenol red DMEM medium with 0.5% (v/v) fetal bovine serum at 37° C. […] LNCaP cells were incubated for 72 hours with R1881, while the duration of the experiment was 48 hours for PC3 cells. AlamarBlue reagent was added to the cells prior to incubation and measuring fluorescence at 570 nm.

[8] = biological target: T2, androgen receptor N-terminal domain (Homo sapiens, UniProt P10275); test: Inhibition of androgen receptor N-terminal domain transactivation (AR (1-558)-Gal4 DBD, luciferase); assay type: cell-based; details: LNCaP cells, compound 1 20 μm vs (Ac) 25 μm, 50 ng/ml IL-6; FIG. 2
T2 construct: AR (1-558)-Gal4 DBD; expressed in transfected cells; host or cells: LNCaP
T2 sequence (P10275 1-558): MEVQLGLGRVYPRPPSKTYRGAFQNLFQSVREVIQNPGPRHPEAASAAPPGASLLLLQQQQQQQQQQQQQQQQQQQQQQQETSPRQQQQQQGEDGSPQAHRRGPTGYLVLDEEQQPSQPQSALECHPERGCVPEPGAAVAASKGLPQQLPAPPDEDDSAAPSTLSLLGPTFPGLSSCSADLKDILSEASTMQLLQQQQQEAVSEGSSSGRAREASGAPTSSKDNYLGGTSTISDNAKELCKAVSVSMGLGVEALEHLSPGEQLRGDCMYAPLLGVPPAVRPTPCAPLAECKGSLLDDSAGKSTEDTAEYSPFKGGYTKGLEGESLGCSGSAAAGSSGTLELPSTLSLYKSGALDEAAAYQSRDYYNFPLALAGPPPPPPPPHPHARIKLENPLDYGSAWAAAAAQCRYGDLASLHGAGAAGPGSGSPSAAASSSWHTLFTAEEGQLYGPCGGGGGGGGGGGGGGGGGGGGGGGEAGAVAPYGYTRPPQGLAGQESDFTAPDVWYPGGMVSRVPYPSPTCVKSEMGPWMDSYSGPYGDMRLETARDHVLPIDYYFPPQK
Procedure: Inhibition of androgen receptor N-terminal domain transactivation was determined as follows.

| Structure (SMILES) | PSA-Luc activity (%) mean ± SD [1] [%] | PB-Luc activity (%) mean ± SD [2] [%] | ARR3-Luc activity (%) mean ± SD [3] [%] | change in tumor volume at day 14 (in words) [6] | also measured |
| --- | --- | --- | --- | --- | --- |
| CC(C)(c1ccc(OCC(O)CO)cc1)c1ccc(OCC(O)CCl)cc1 (stereo not shown) [(A)] | 36.91 ± 16.46 | 63.96 ± 13.70 | 63.96 ± 14.57 | – | – |
| CC(C)(c1ccc(OC[C@H](O)CO)cc1)c1ccc(OC[C@@H](O)CCl)cc1 [(Aa)] | 45.16 ± 29.13 | 66.44 ± 12.47 | 66.44 ± 31.59 | – | – |
| CC(C)(c1ccc(OC[C@H](O)CCl)cc1)c1ccc(OC[C@@H](O)CO)cc1 [(Ab)] | 24.49 ± 13.20 | 43.70 ± 9.98 | 43.68 ± 15.16 | – | animals in which tumor regression was attained ([4]; FIG. 8): 60%; CRPC tumor growth / antitumor activity (in words) [4]: better antitumor activity; loss of body weight (in words) [5]: some losses |
| CC(C)(c1ccc(OC[C@H](O)CO)cc1)c1ccc(OC[C@H](O)CCl)cc1 [(Ac)] | 24.33 ± 13.63 | 41.58 ± 6.63 | 41.58 ± 14.82 | – | inhibition of transcriptional activity of AR (in words) ([1]; PSA-, probasin (PB)- and ARR3-luciferase reporters, Table 3): best activity of all the comparative compounds; extent of tumor regression (in words) ([4]; (Ac) versus (Ab), FIG. 8): greater regression; animals in which tumor regression was attained ([4]; FIG. 8): 60%; CRPC tumor growth / antitumor activity (in words) [4]: better antitumor activity; also recorded: most potent and least toxic of the comparative compounds; loss of body weight (in words) [5]: No loss of body weight |
| CC(C)(c1ccc(OC[C@@H](O)CO)cc1)c1ccc(OC[C@@H](O)CCl)cc1 [(Ad)] | 33.55 ± 11.31 | 54.72 ± 7.83 | 54.73 ± 12.99 | – | – |
| CC(C)(c1ccc(OC[C@@H](O)CF)cc1)c1ccc(OC[C@@H](O)CCl)cc1 [Compound 1d, (R)-1-chloro-3-(4-(2-(4-((R)-3-fluoro-2-hydroxypropoxy)phenyl)propan-2-yl)phenoxy)propan-2-ol] | – | – | – | increased loss in tumor volume | – |
| CC(C)(c1ccc(OCC(O)CF)cc1)c1ccc(OCC(O)CCl)cc1 (stereo not shown) [Compound 1, 1-chloro-3-(4-(2-(4-(3-fluoro-2-hydroxypropoxy)phenyl)propan-2-yl)phenoxy)propan-2-ol] | – | – | – | increased loss in tumor volume | inhibition of androgen-dependent proliferation of LNCaP cells (in words) [7]: inhibits androgen-dependent proliferation of LNCaP cells at lower concentrations; inhibition of androgen receptor N-terminal domain transactivation (in words) [8]: more potent inhibition activity |
| CC(C)(c1ccc(OC[C@H](O)CF)cc1)c1ccc(OC[C@H](O)CCl)cc1 [Compound 1c, (S)-1-chloro-3-(4-(2-(4-((S)-3-fluoro-2-hydroxypropoxy)phenyl)propan-2-yl)phenoxy)propan-2-ol] | – | – | – | increased loss in tumor volume | – |
